Laboratory results from ChEMBL document CHEMBL1201862, “PubChem BioAssay data set” (2004).
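All cell lines were grown in 96-well plates and treated with compound for 48 hours. Here, GI50 denotes the concentration required for 50% inhibition of growth.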 Active and inactive are the calls of the source. No stated cut-off is given here; in the data, active = GI50 up to about 1.1 µM and inactive = higher.

Key:
Assay in all cases: NCI anticancer screen, dose series, 48 h
[1] = tested on: A498
[2] = tested on: CCRF-CEM
[3] = tested on: EKVX
[4] = tested on: HOP-92
[5] = tested on: M14
[6] = tested on: MOLT-4
[7] = tested on: Malme-3M
[8] = tested on: NCI-H522
[9] = tested on: OVCAR-8
[10] = tested on: RPMI-8226
[11] = tested on: SF-268
[12] = tested on: SF-295
[13] = tested on: SK-MEL-2
[14] = tested on: SK-MEL-5
[15] = tested on: SR
[16] = tested on: HCT-15

| Structure (SMILES) | GI50 [1] | GI50 [2] | GI50 [3] | GI50 [4] | GI50 [5] | GI50 [6] | GI50 [7] | GI50 [8] | GI50 [9] | GI50 [10] | GI50 [11] | GI50 [12] | GI50 [13] | GI50 [14] | GI50 [15] | GI50 [16] [µM] |
| --- | --- | --- | --- | --- | --- | --- | --- | --- | --- | --- | --- | --- | --- | --- | --- | --- |
| Oc1ccc(Br)cc1/C=N/c1ccc(Oc2ccc(/N=C/c3cc(Br)ccc3O)cc2)cc1 | > 19.6 µM (inactive) | > 19.6 µM (inactive) | > 19.6 µM (inactive) | > 19.6 µM (inactive) | > 19.6 µM (inactive) | > 19.6 µM (inactive) | > 19.6 µM (inactive) | > 19.6 µM (inactive) | > 19.6 µM (inactive) | > 19.6 µM (inactive) | > 19.6 µM (inactive) | > 19.6 µM (inactive) | > 19.6 µM (inactive) | > 19.6 µM (inactive) | > 19.6 µM (inactive) |  |
| CCCCc1c2c([n+]([O-])c3c1CCCC3)CCCC2 |  | 19.3 µM (inactive) | > 100 µM (inactive) |  | > 10 µM (inactive) | 6.59 µM (inactive) | > 100 µM (inactive) | 2 µM (inactive) | > 100 µM (inactive) | 50.8 µM (inactive) | 66.4 µM (inactive) | 28 µM (inactive) |  | 28.4 µM (inactive) | 29.6 µM (inactive) | 21.6 |
| Cc1cc2nc3c(C(OC4OC(CO)C(O)C(O)C4O)C(O)CO)nn(-c4ccc(F)cc4)c3nc2cc1C (stereo not drawn) | > 100 µM (inactive) | > 100 µM (inactive) | > 100 µM (inactive) |  | > 100 µM (inactive) | > 100 µM (inactive) | > 100 µM (inactive) | > 100 µM (inactive) | > 100 µM (inactive) | > 100 µM (inactive) | > 100 µM (inactive) | > 100 µM (inactive) |  |  | > 100 µM (inactive) | > 100 |
| CCOC(=O)C(=O)Nc1c(C)cccc1C |  |  | > 100 µM (inactive) | > 100 µM (inactive) | > 100 µM (inactive) |  | > 100 µM (inactive) |  | > 100 µM (inactive) | > 100 µM (inactive) | > 100 µM (inactive) | > 100 µM (inactive) | > 100 µM (inactive) |  |  | > 100 |
| Cc1n[nH]c(=S)n(C)c1=S | > 100 µM (inactive) | > 100 µM (inactive) | 56.1 µM (inactive) | 91.2 µM (inactive) | > 100 µM (inactive) | > 100 µM (inactive) | > 100 µM (inactive) | > 100 µM (inactive) | > 100 µM (inactive) | > 100 µM (inactive) | > 100 µM (inactive) | > 100 µM (inactive) | > 100 µM (inactive) |  |  | > 100 |
| COc1ccccc1C12OC(=O)C1(C)Oc1ccccc1C2=O (stereo not drawn) | > 100 µM (inactive) | > 100 µM (inactive) | > 100 µM (inactive) | 65 µM (inactive) | > 100 µM (inactive) | > 100 µM (inactive) | > 100 µM (inactive) |  | > 100 µM (inactive) | > 100 µM (inactive) | > 100 µM (inactive) | > 100 µM (inactive) | > 100 µM (inactive) | > 100 µM (inactive) |  | > 100 |
| Cc1cc([N+](=O)[O-])ccc1Sc1c2ccccc2nc2cc(Cl)ccc12 | > 100 µM (inactive) | 28.1 µM (inactive) | 40.6 µM (inactive) | 23.4 µM (inactive) | 40.8 µM (inactive) | 21.3 µM (inactive) | > 100 µM (inactive) | 27.7 µM (inactive) | 21.8 µM (inactive) |  | 29.6 µM (inactive) | 45.8 µM (inactive) | 22.9 µM (inactive) | 39.4 µM (inactive) | 26.9 µM (inactive) | 51.4 |
| FC(F)(F)c1ccc(C2SCc3nc4ccccc4n32)cc1 (stereo not drawn) | 81.8 µM (inactive) | 31.4 µM (inactive) | 29.7 µM (inactive) | 1.11 µM (active) |  | 12.1 µM (inactive) | > 100 µM (inactive) | > 10 µM (inactive) | > 100 µM (inactive) | 12.4 µM (inactive) | 95.3 µM (inactive) | > 100 µM (inactive) | > 100 µM (inactive) | 11.5 µM (inactive) | 16.2 µM (inactive) |  |
| CN(C)C(=S)/N=c1\ssc(=S)n1Cc1ccncc1 | 36.2 µM (inactive) | 5.81 µM (inactive) | 22.8 µM (inactive) |  | 20.6 µM (inactive) | 14 µM (inactive) | 16.3 µM (inactive) | 1.49 µM (inactive) | 23.1 µM (inactive) |  | 24.3 µM (inactive) | 29.8 µM (inactive) | 17.2 µM (inactive) | 4.78 µM (inactive) | 6.28 µM (inactive) | 17.5 |
| CC1=C(c2nc3ccccc3s2)C(=O)OC1(C)C |  | > 100 µM (inactive) | > 100 µM (inactive) |  | > 100 µM (inactive) | > 100 µM (inactive) | > 100 µM (inactive) | > 100 µM (inactive) | > 100 µM (inactive) | > 100 µM (inactive) | > 100 µM (inactive) | > 100 µM (inactive) | > 100 µM (inactive) | > 100 µM (inactive) | > 100 µM (inactive) | > 100 |
| O=[N+]([O-])c1ccc2nc(/C(=N/Nc3ccccc3)C(O)c3ccc(C(O)/C(=N\Nc4ccccc4)c4nc5ccc([N+](=O)[O-])cc5nc4O)cc3)cnc2c1 (stereo not drawn) | 32.1 µM (inactive) | 39.6 µM (inactive) | > 100 µM (inactive) | > 100 µM (inactive) | 40.3 µM (inactive) | 75.3 µM (inactive) | > 100 µM (inactive) | 5.64 µM (inactive) | > 100 µM (inactive) | 19.4 µM (inactive) | > 100 µM (inactive) | > 100 µM (inactive) | 43.8 µM (inactive) | 24.8 µM (inactive) | 33.7 µM (inactive) |  |
| COc1cc([C@@H]2c3cc4c(cc3[C@@H](NC(=O)c3ccc([N+](=O)[O-])cc3)C3COC(=O)[C@@H]32)OCO4)cc(OC)c1O (stereo partly drawn) | 1.28 µM (inactive) | 0.124 µM (active) | 0.975 µM (active) | 0.7 µM (active) | 0.653 µM (active) | < 0.01 µM (active) | 0.817 µM (active) | 0.508 µM (active) | 0.923 µM (active) | 0.256 µM (active) | 1.6 µM (inactive) | 0.249 µM (active) | 2.83 µM (inactive) | 0.361 µM (active) |  | 1.57 |
| NC1=NN(c2ccccc2)C(=O)C1/C(=N\NC(=O)c1cc2ccccc2cc1O)C(=O)Nc1ccc(Cl)cc1 (stereo not drawn) | 24.2 µM (inactive) | 3.73 µM (inactive) | 22.8 µM (inactive) | 23.1 µM (inactive) | 20.7 µM (inactive) | 6.78 µM (inactive) | 30.8 µM (inactive) | 20.4 µM (inactive) | 20.8 µM (inactive) | 22.6 µM (inactive) | 12.7 µM (inactive) | 35.5 µM (inactive) | 23.2 µM (inactive) | 24.7 µM (inactive) |  | 10.5 |
| CN(C)C(=S)/N=c1\ss/c(=N\c2ccccc2)n1-c1ccccc1 | 34 µM (inactive) | 0.435 µM (active) | 37.3 µM (inactive) | 12.5 µM (inactive) | 14.7 µM (inactive) | 30 µM (inactive) | 21.3 µM (inactive) | 1.21 µM (inactive) | 19.2 µM (inactive) |  | 21.6 µM (inactive) | 28.6 µM (inactive) | 29.5 µM (inactive) |  |  | 23.2 |
| O=C(NCCNCCO)c1cccc2ccc(-c3ccccc3)nc12 | 1.8 µM (inactive) | 3.4 µM (inactive) | 5.94 µM (inactive) | 3.18 µM (inactive) | 5.28 µM (inactive) | 1.54 µM (inactive) |  |  | 4.42 µM (inactive) |  | 6.53 µM (inactive) | 5.58 µM (inactive) | 7.74 µM (inactive) | 3.59 µM (inactive) |  | 3.8 |
| O=C(NC1C2CC3CC(C2)CC1C3)/C(Cl)=C1/Sc2ccccc2NC1=O (stereo not drawn) | > 100 µM (inactive) | 29.5 µM (inactive) | > 100 µM (inactive) | > 76.4 µM (inactive) | > 100 µM (inactive) | 16.7 µM (inactive) | > 100 µM (inactive) | > 100 µM (inactive) | > 100 µM (inactive) |  | > 100 µM (inactive) | > 100 µM (inactive) |  | > 100 µM (inactive) | 44.5 µM (inactive) | > 78.9 |
| OC1OCC(COc2cc(Cl)c(Cl)cc2Cl)OC1O (stereo not drawn) | 44.5 µM (inactive) | 32 µM (inactive) | 34.3 µM (inactive) | 56.1 µM (inactive) | 30.1 µM (inactive) | 32.2 µM (inactive) | 61.2 µM (inactive) | 23.6 µM (inactive) | 36.8 µM (inactive) | 26.7 µM (inactive) | 68.2 µM (inactive) | 45.8 µM (inactive) |  | 39.5 µM (inactive) |  | 19.8 |
| COc1ccc(N2C(=O)C3CC(c4ccc(Br)cc4)c4c([nH]c5ccccc45)C3C2=O)cc1 (stereo not drawn) | 9.59 µM (inactive) | 8.59 µM (inactive) | 16.9 µM (inactive) | 12.3 µM (inactive) | 19.5 µM (inactive) | 10.8 µM (inactive) | 14.8 µM (inactive) |  | 2.13 µM (inactive) | 26.7 µM (inactive) | 6.78 µM (inactive) | 10.8 µM (inactive) | 60.7 µM (inactive) | 16.5 µM (inactive) |  | 90.6 |
| CC1CC[C@]2(C(=O)O)CCC3(C)C(=CCC4[C@@]5(C)CC[C@H](OS(=O)(=O)c6ccccc6)C(C)(C)C5CC[C@]43C)[C@@H]2[C@H]1C (stereo partly drawn) | > 100 µM (inactive) | 78 µM (inactive) | 55.1 µM (inactive) | > 100 µM (inactive) | > 100 µM (inactive) | 34.3 µM (inactive) | > 100 µM (inactive) | 53.8 µM (inactive) | > 100 µM (inactive) | 35 µM (inactive) | > 100 µM (inactive) | > 100 µM (inactive) | 48.9 µM (inactive) | > 100 µM (inactive) | 36.8 µM (inactive) |  |
| COc1cc(/C=C/c2ccc(OC)c(O)c2)cc(OC)c1 | 29.4 µM (inactive) | 3.15 µM (inactive) | 9.66 µM (inactive) | 7.71 µM (inactive) | 3.08 µM (inactive) | 3.35 µM (inactive) | 10 µM (inactive) | 1.69 µM (inactive) | 5.92 µM (inactive) | 2.19 µM (inactive) | 8.55 µM (inactive) | 1.96 µM (inactive) | 6.41 µM (inactive) | 4.18 µM (inactive) |  | 3.94 |
